Experimental data as given in PMC13270500, “Legacy 4(1H)‑Quinolone Scaffolds Activity against Acute and Chronic Toxoplasma gondii Infection” (ACS Infectious Diseases, 2026).

Assays:
[1] = test system: ME49 R4 ATQ^R tachyzoites; experiment: In vitro tachyzoite growth dose response, ATQ-resistant strain R4 (crystal violet); assay type: cell-based; conditions: Toxoplasma gondii, read-out: EC50 against R4 ATQ^R strain
[2] = test system: T. gondii RH (type I) tachyzoites; experiment: In vitro tachyzoite growth dose response, RH-RFP (red fluorescence); assay type: cell-based; conditions: Toxoplasma gondii, RH-RFP type I wild-type, in vitro proliferation; read-out: EC50 against RH tachyzoites
Description: Experiments with T. gondii tachyzoites were carried out with parasites expressing a td-Tomato red fluorescent protein (RFP). , Parasites were purified by passing them through a 25-gauge needle, followed by filtration through a 5 μm filter. Human fibroblasts were cultured in 96-well black plates for 48 (hTERT) or 120 (HFF) hours before the addition of 4,000 fluorescent tachyzoites/well. […] Two technical replicates per concentration were used, and the experiment was repeated in three independent biological replicates. Fluorescence values were measured for up to 7 days, and both excitation (544 nm) and emission (590 nm) were read from the bottom of the plates in a BioTek Synergy H1 Hybrid plate reader. […] The EC50s were calculated using GraphPad Prism software version 10.

O=C1C(O)=C([C@H]2CC[C@H](c3ccc(Cl)cc3)CC2)C(=O)c2ccccc21 [ATQ, atovaquone]
EC50 [1]: 1.87 µM | EC50 [2]: 0.0141 µM
